Patent US9126941B2, “Treatment of hyperproliferative disorders with diarylhydantoin compounds” (The Regents of the University of California, priority 2005, dated 2015)
Read-outs that look alike come from different tables or passages of the source.

What was measured:
AR [1] = molecular target: T1, AR (Homo sapiens, UniProt P10275); assay: cell-based; assay type: cell-based
Description: It is well established that PSA levels are indicators of AR activities in prostate cancer. […] The LNCaP-AR cells are a line of lymph node carcinoma of prostate cells transduced with a plasmid that makes express androgen receptors. […] After four days incubation, secreted PSA levels were assayed using PSA ELISA kits (American Qualex, San Clemente, Calif.)

1AR cell line = assay: Luciferase activity in the 1AR cell line; assay type: cell-based; details: for a given dose
4AR cell line = assay: Luciferase activity in the 4AR cell line; assay type: cell-based; details: for a given dose, 1.25 to 10 μmol
AR [2] = molecular target: T1, AR; assay: cell-based; assay type: cell-based; remark: listed apart in the source
Description: The compounds were subjected to tests using an artificial AR response reporter system in a hormone refractory prostate cancer cell line. […] After two days of incubation, reporter activities were assayed.

AR [3] = molecular target: T1, AR; assay: cell-based
Text: Table 2 lists the agonistic activities of different compounds.

AR [4] = molecular target: T1, AR; assay: cell-based; assay type: cell-based; remark: listed apart in the source
[5] = molecular target: glucocorticoid receptor (GR) (Homo sapiens (Human), UniProt P04150); assay: GR response reporter in LNCaP cells over expressing glucocorticoid receptor; assay type: cell-based; details: reporter induced by dexamethasone
DU-145 cells = assay: MTS growth assay, DU-145 cells; assay type: cell-based; details: prostate cancer cell line lacking AR expression
MCF7 = assay: Growth effect on MCF7 cells; assay type: cell-based; details: breast cancer cells
SkBr3 = assay: Growth effect on SkBr3 cells; assay type: cell-based; details: breast cancer cells
3T3 = assay: Growth effect on 3T3 fibroblasts; assay type: cell-based; details: normal mouse fibroblast cell line
LNCaP cells = assay: MTS growth assay, hormone sensitive LNCaP cells; assay type: cell-based; details: FIG. 10, MTS
Description: FIG. 10. Inhibitory effect on growth of hormone sensitive prostate cancer cells. […] After 4 days of incubation, cell growth was measured by MTS assay.

[6] = test system: AR-overexpressed LNCaP xenograft tumors; assay: AR-overexpressed LNCaP xenograft model in castrated male SCID mice, oral once daily; assay type: in vivo; details: 44 days
Description: FIG. 7. […] Mice with established LN-AR xenograft tumors were randomized and treated with indicated compounds orally once daily. Tumor size was measured by caliber.
FIG. 8. […] The tumors were taken out from the mice after 44 days of treatment, tumor lysate was extracted, and PSA level in tissue lysate was determined by ELISA.
First we examined this compound on xenograft tumors established from AR-overexpressed LNCaP cells. The engineered cells in Matrigel (Collaborative Biomedical) were injected subcutaneously into the flanks of the castrated male SCID mice. Tumor size was measured weekly in three dimensions using calipers. After xenograft tumors established (tumor size reached at least 40 mm^3), mice with tumors were randomized and treated with different doses of compounds orally once daily.

[7] = test system: hormone refractory LAPC4 xenograft; assay: Hormone refractory LAPC4 xenograft model; assay type: in vivo, mice; details: 1 mg per kg orally once daily, 17 days
Description: FIG. 9. […] (A), tumor size was measured by caliber. (B), the tumors were taken out from the mice after 17 days of treatment, tumor lysate was extracted, and PSA level in tissue lysate was determined by ELISA.
This model was established from passaging of hormone sensitive prostate cancer in castrated mice, which mimics the clinical progression of prostate cancer (2).

[8] = Pharmacokinetics in FVB mice, drug concentration by HPLC; details: mice
Description: Mice were divided into groups of three for each time points. Two mice were not treated with drug and two other mice were treated with vehicle solution. […]
The drug was dissolved in a mixture 1:5:14 of DMSO:PEG400:H20. (Vehicle solution) and was administered into mice through the tail vein. The animals are warmed under a heat lamp for approximately 20 minutes prior to treatment to dilate their tail vein. […] After drug administration, the animals were euthanized via CO2 inhalation at different timepoints: […], […], 2 h, 6 h, 16 h. Animals were immediately bleed after exposure to CO2 via cardiac puncture (1 ml BD syringe+27 G ⅝ needle).
The samples for HPLC analysis were prepared according to the following procedure: • Blood cells were separated from serum by centrifugation. • To 400 μl of serum were added 80 μl of a 10 μM solution of an internal standard and 520 μl of acetonitrile. Precipitation occurred. • The mixture was vortexed for 3 minutes and then placed under ultrasound for 30 minutes. • The solid particles were filtered off or were separated by centrifugation. • The filtrate was dried under an argon flow to dryness.

T1 sequence (P10275 whole entry, looked up): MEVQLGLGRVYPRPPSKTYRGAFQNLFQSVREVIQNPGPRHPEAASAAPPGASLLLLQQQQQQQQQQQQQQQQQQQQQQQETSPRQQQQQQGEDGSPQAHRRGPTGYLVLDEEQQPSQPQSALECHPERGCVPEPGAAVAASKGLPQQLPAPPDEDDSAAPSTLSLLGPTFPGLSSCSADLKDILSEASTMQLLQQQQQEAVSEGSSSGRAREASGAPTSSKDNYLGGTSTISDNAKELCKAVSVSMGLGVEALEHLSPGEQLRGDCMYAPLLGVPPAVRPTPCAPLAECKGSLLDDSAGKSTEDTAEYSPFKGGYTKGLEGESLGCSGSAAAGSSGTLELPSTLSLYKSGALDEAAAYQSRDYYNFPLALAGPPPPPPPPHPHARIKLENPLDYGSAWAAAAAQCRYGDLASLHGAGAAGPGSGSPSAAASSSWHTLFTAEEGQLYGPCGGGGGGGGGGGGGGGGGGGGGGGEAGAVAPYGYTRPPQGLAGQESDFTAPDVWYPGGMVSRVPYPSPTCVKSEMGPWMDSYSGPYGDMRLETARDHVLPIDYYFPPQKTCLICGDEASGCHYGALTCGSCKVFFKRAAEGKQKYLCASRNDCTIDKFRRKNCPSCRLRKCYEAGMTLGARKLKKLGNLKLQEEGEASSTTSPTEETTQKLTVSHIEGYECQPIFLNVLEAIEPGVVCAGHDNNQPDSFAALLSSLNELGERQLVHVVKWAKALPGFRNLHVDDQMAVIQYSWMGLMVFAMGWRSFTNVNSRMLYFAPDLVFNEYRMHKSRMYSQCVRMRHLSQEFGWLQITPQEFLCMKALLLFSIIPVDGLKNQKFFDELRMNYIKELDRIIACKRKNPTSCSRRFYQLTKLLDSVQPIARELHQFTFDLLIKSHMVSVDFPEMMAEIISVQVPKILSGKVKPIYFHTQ
glucocorticoid receptor (GR), sequence (P04150 whole entry, species assumed): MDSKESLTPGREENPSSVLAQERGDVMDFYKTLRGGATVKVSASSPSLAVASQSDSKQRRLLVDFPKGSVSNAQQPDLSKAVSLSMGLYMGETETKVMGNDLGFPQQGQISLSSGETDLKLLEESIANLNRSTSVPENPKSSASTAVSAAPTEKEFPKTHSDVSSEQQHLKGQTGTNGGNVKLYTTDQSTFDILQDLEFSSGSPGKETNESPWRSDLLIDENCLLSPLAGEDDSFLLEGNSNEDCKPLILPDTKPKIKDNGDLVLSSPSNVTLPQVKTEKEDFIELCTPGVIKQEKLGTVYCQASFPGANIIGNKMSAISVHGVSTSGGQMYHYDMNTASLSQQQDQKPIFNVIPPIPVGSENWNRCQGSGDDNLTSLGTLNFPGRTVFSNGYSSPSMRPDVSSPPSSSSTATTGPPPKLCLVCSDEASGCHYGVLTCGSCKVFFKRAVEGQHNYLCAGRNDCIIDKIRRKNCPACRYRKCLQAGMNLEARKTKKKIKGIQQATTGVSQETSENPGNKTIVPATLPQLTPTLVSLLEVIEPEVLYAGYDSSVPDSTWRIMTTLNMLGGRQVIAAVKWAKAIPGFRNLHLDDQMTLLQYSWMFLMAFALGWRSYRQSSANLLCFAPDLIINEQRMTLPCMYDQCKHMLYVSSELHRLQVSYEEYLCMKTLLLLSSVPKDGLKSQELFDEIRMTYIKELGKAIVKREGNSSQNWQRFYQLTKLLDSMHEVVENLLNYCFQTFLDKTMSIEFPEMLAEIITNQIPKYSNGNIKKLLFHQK

CC1(C)C(=O)N(c2ccc(C#N)c(C(F)(F)F)c2)C(=S)N1c1ccc(O)cc1 [RD8, 4-[3-(4-hydroxyphenyl)-4,4-dimethyl-5-oxo-2-thioxoimidazolidin-1-yl]-2-trifluoromethylbenzonitrile]
PSA level, LN/AR cell line, comparison (AR [1]; for a given dose / concentration): less than the PSA level upon exposure to RD9 | Luciferase activity, 1AR cell line (1AR cell line): less than the luciferase activity upon exposure to RD9 | Luciferase activity, 4AR cell line (FIG. 26) (4AR cell line): less than the luciferase activity upon exposure to RD9

Cc1ccc(N2C(=S)N(c3ccc(C#N)c(C(F)(F)F)c3)C(=O)C23CCC3)cc1 [RD37, 4-(8-oxo-6-thioxo-5-(4-methylphenyl)-5,7-diazaspiro[3.4]oct-7-yl)-2-trifluoromethylbenzonitrile]
IC50 (AR [2]): 124 nM | IC50 compared with bicalutamide (FIG. 15) (AR [2]; assay not specified): much lower than the IC50 for bicalutamide | IC50 (AR [1]): 128 nM | Rank order, most active to least active, relative PSA level (FIG. 4) (AR [1]; 500 nM): RD138>RD131>RD37>RD133>RD134>RD137>RD138>RD135>bicalutamide | Decrease in PSA level of LNCaP-AR cells, comparison (FIG. 4) (AR [1]; at concentrations of 1000 nM): greater decrease in PSA level of LNCaP-AR cells than RD133, RD134, and RD138 | Agonistic activity on AR, reporter (AR [3]; LN-AR, absence of R1881): no agonistic activity | fold induction at 0.1 µM (AR [3]; read-out: Fold induction of AR response reporter, 0.1 μM): 0.87 | fold induction at 1 µM (AR [3]; read-out: Fold induction of AR response reporter, 1 μM): 1.19 | fold induction at 10 µM (AR [3]; read-out: Fold induction of AR response reporter, 10 μM): 0.89 | Agonistic activity, secreted PSA (AR [4]; AR over expressed LNCaP, absence of R1881): no agonistic activities | fold induction at 0.1 µM (AR [4]; LNCaP, read-out: Fold induction of endogenous PSA, 0.1 μM): 1.25 | fold induction at 1 µM (AR [4]; LNCaP, read-out: Fold induction of endogenous PSA, 1 μM): 1.2 | fold induction at 10 µM (AR [4]; LNCaP, read-out: Fold induction of endogenous PSA, 10 μM): 1.15 | Effect on GR response reporter [5]: no effect on GR | Growth inhibitory effect on DU-145 cells (DU-145 cells): no growth inhibitory effect | Growth effect on MCF7 (MCF7): no growth effect | Growth effect on SkBr3 (SkBr3): no growth effect | Growth effect on 3T3 (3T3): no growth effect | Potency relative to bicalutamide on hormone sensitive prostate cancer cells (LNCaP cells): 10 fold | Growth of LNCaP-AR xenograft tumors (FIG. 7a) ([6]; 1 mg per kg orally once daily): strongly inhibited growth | Dose dependence of tumor growth inhibition (FIG. 7b) ([6]; 0.1, 1 or 10 mg per kg): dose-dependent | PSA expression in xenograft tumors (FIG. 8) ([6]; 0.1, 1 or 10 mg per kg, tumor lysate ELISA): inhibited PSA expression | Growth of hormone refractory LAPC4 xenograft (FIG. 9a) [7]: strongly inhibited | PSA expression in hormone refractory LAPC4 xenograft (FIG. 9b) [7]: strongly inhibited | Pharmacokinetic behavior, residence time in blood [8]: metabolize fast
